From US20080009448A1, “Peptide Derivative” (priority 2006, published 2008)
Where two headings read alike, the source gives them in different places.

Legend:
[1] = system: heat nociceptive stimulation; assay: Anti-nociceptive activity test, tail-flick method; assay type: in vivo, mouse; conditions: for activity-peak time after the oral administration / Oral ED50 / activity-peak time after the subcutaneous administration / Subcutaneous ED50 / ED50: mice; for Oral ED50 / Subcutaneous ED50 / ED50: at activity-peak time, parentheses = 95% confidence limit; for ED50: Mus musculus
Protocol: (1) Experimental animal, male ddy mice (Japan SLC), weighing the body weight in the range of 22 to 25 g, were used for the studies. The animals had been kept under constant conditions (room temperature 22±2° C., humidity 55±5%, 12 hours light-and-dark cycle having light time 9:00 to 21:00 and dark time 21:00 to 9:00) until used for an experiment. The animals were fed the mouse solid diet (F2, Funabashi farm. Funabashi, Japan) with unrestricted tap water intake.
SS8225-01, 02, 03 04, 05, 06, 07 and 08 as examples and SS8225-09, 10, 11 and 12 as comparison examples were used as the administered drugs. […] In addition only Liger solution was administered as an experimental control. The animals were left for 60 minutes in the plastic cage to become familiar to the environment prior to the test in which measured a latent time for each mouse before drug administration in accordance with a tail-flick method noted below. Heat was radiated to a part of each mouse tail which is 2 cm from the end of its tail. Each of heat radiation periods before beginning of tail-flick was measured as a false pain threshold. Mice which responded to the stimulation within 2.5 to 3.5 seconds were pre-selected for the test. Administration solution under one administration condition for one kind of drug was administered to one experimental animal group including 10 mice. After the body weight of each mouse was measured, each volume of the administration solution was adjusted to be 0.1 mL/10 g of mouse body weight and then the solution was administered. The administration methods were two methods of subcutaneous administration (s. c.) and oral administration (p. o.). On subcutaneous administration, the administration solution of 0.1 mL per 10 g of body weight (0.1 mL/10 g) was injected into the back of the mouse using 27 gauge needle. On oral administration, the administration solution of 0.1 mL per 10 g of body weight (0.1 mL/10 g) was administered using an oral sonde.
Heat was radiated to a part of each mouse's tail of respective experimental group, which is 2 cm from the end of its tail, at 15, 30 and 60 minutes after the drug administration according to the preset measurement interval and a latent time until respective mouse swung its tail was measured as a false pain threshold value. The maximum stimulation period (cut-off-time) was set as 10 seconds to minimize the damage to the stimulation part. The anti-nociceptive effect was evaluated quantitatively by calculating % MPE (% of maximum possible effect) according to the following formula. [formula] T1: A latent time until beginning of tail-flick before respective drug administration (seconds) T2: A latent time until beginning of tail-flick after respective drug administration (seconds) Tc: A maximum stimulation period (cut-off-time)
The graphs (FIG. 1, FIG. 3, FIG. 5, FIG. 7, FIG. 9, FIG. 11, FIG. 13, FIG. 15, FIG. 17, FIG. 19, FIG. 21, FIG. 23, FIG. 25, FIG. 27, FIG. 29, FIG. 31, FIG. 33 and FIG. 35) showing a time-course variation of % MPE were created, in which a vertical axis is an average value with a standard error (means ±S. E. M.) obtained by calculation of % MPE of respective animals of 10 mice every administration condition of respective drugs and a horizontal axis is a time after administration. After treating % MPE data of each animal of experimental groups with respective doses and % MPE data of each animal of the experimental group with a control Ringer's solution at the same measurement time every drugs using the two-way layout dispersion analysis (two-way ANOVA), the hazard-ratio of P<0.05 was decided to be a significant difference according to Bonferroni post-test.
A lasting time of anti-nociceptive activity of each drug in the present description is the lasting time of anti-nociceptive activity under the dose condition providing the longest lasting time.
ED50 is represented in the unit of mg/Kg.

[2] = system: MSU induced knee osteoarthritis pain; assay: MSU induced knee osteoarthritis pain model, hind leg paw-pressure ratio; assay type: in vivo, rat; set-up: key to AUC of time-course variation of anti-nociceptive activity: AUC of the time course of anti-nociceptive activity as % MPE; conditions: rat, MSU knee model; for ED50: range in parentheses
Protocol: Experimental animal, male SD type rats, weighing the body weight in the range of 170 to 190 g, were used for the studies. The animals had been kept under constant conditions (room temperature 23±1° C., humidity 52±2%, 12 hours light-and-dark cycle having light time 7:00 to 19:00 and dark time 19:00 to 7:00) until used for an experiment. The animals were fed the mouse solid diet (F2, Funabashi farm. Funabashi, Japan) with unrestricted tap water intake, and kept in captivity for at least more than two days in a laboratory.
Any test drugs were dissolved in Ringer's solution (Fuso Yakuhin) to be used.
MSU was suspended with the suspension solution (10% of polyoxyethylene sorbitan mono-oleate (Tween 80: Nakarai Tesk) as 0.1 g per 1 mL. The animal was anesthetized with diethyl ether and after the surface of its left hind leg knee joint was wiped with 70% ethanol cotton, a porous administration of the suspension solution above noted was conducted into the cavity of let hind leg knee joint.
Pressures to both hind leg paw were measured using a paw-pressure measurement apparatus and recorded. Measurement time at respective times was 4.5 seconds. Calculated paw-pressure ratio (ppr) is a value calculated by dividing the pressure on the left hind leg by the pressure on the right hind leg according to the measured pressures on both hind legs.
The anti-nociceptive effect was evaluated quantitatively by calculating % MPE (% of maximum possible effect) according to the following formula. [formula]
In the formula, ppr 0 and ppr 1 are respective paw-pressure ratios on both hind legs before and after administration. ED50 value of anti-nociceptive activity was calculated using GraphPad Prism data-graph processing software version 4.0, San Diego, Calif., USA.
The strength of anti-nociceptive activity was represented by calculating the time-course variation of anti-nociceptive activity AUC using GraphPad Prism noted above.
Paw-pressure was measured twice at 4 hours after administration to provide ppr by calculation and the average of those values was both hind leg paw-pressure ratio before the drug administration. After the measurement of both hind leg paw-pressure before the drug administration, 0.1 mL of Ringer's solution or a test drug in Ringer's solution per 100 g rat body weight was orally administered, and then a paw-pressure was measured once every unit time after the oral administration.
Statistical processing was conducted using GraphPad Prism. After the two-way layout dispersion analysis, the hazard-ratio of P<0.05 was decided to be a significant difference according to Bonferroni post-test. The hazard-ratios were distinguished into less than 5% (P<0.05) and less than 1% (P<0.01) and represented as “*” and “**” in the same manner conducted for the Tail-flick method.

male ddy mouse = assay: Evaluation of acute toxicity; conditions: s.c.; for Number of mice died (out of five): within 72 to 96 hours
Protocol: Mice weighing in the range of 22 to 25 g, male ddy mouse, were employed. Number of mice out of five mice in each group that died within 72 to 96 hours recorded.

[3] = s.c., doses of 0.5 mg/Kg and 0.25 mg/Kg

## Iminoethyl-[Tyr]-[D-Arg]-[Phe]-[N-MeβAla]-NH2 [SS8225-02]
[1]; p.o.
  activity-peak time after the oral administration: 240 min
  Oral ED50: 4.0 mg/kg
[1]; s.c.
  activity-peak time after the subcutaneous administration: 90 min
  Subcutaneous ED50: 0.06 mg/kg
[1]; p.o., dose of 10 mg/Kg
  lasting time of anti-nociceptive activity: 10 h
[1]; s.c., dose of 0.125 mg/Kg
  lasting time of anti-nociceptive activity: 6 h

## Iminoethyl-[DMT]-[D-Arg]-[Phe]-[N-MeβAla]-NH2 [SS8225-01]
[1]; p.o.
  Oral ED50: >10 mg/kg
[1]; s.c.
  activity-peak time after the subcutaneous administration: 90 min
  Subcutaneous ED50: 0.12 mg/kg
[1]; [3]
  lasting time of anti-nociceptive activity: not less than 7 hours

## Iminoethyl-[Tyr]-[D-Met(O)]-[Phe]-[N-MeLys]-NH2 [SS8225-06]
[1]; p.o.
  activity-peak time after the oral administration: 120 min
  Oral ED50: 6.02 mg/kg
[1]; s.c.
  activity-peak time after the subcutaneous administration: 90 min
  Subcutaneous ED50: 0.18 mg/kg
[1]; p.o., dose of 10 mg/Kg
  lasting time of anti-nociceptive activity: not less than 17 hours
[1]; s.c., dose of 0.25 mg/Kg
  lasting time of anti-nociceptive activity: 5 h

## Iminoethyl-[Tyr]-[D-Met(O)]-[Phe]-[N-MeLys]-OH [SS8225-11]
[1]; p.o.
  Oral ED50: >10 mg/kg
[1]; p.o., listed as Comparison Example 5
  Oral ED50: over 10 mg/Kg
[1]; s.c.
  Subcutaneous ED50: >0.5 mg/kg
[1]; s.c., listed as Comparison Example 5
  Subcutaneous ED50: over 0.5 mg/Kg

## [DMT]-[D-Arg]-[Phe]-[N-MeLys]-NH2 [SS8225-09]
[1]; p.o.
  Oral ED50: >10 mg/kg
[1]; p.o., listed as Comparison Example 3
  Oral ED50: over 10 mg/Kg
[1]; s.c.
  activity-peak time after the subcutaneous administration: 90 min
  Subcutaneous ED50: 0.44 mg/kg
[1]; s.c., dose of 1 mg/Kg
  lasting time of anti-nociceptive activity: 5 h

## [DMT]-[D-Met(O)]-[Phe]-[N-MeLys]-NH2 [SS8225-10]
[1]; p.o.
  Oral ED50: >10 mg/kg
[1]; p.o., listed as Comparison Example 4
  Oral ED50: over 10 mg/Kg
[1]; s.c.
  activity-peak time after the subcutaneous administration: 90 min
  Subcutaneous ED50: 0.28 mg/kg
[1]; s.c., dose of 0.5 mg/Kg
  lasting time of anti-nociceptive activity: 6 h

## Iminoethyl-[DMT]-[D-Arg]-[Phe]-[N-MeLys]-OH [SS8225-12]
[1]; p.o.
  Oral ED50: >10 mg/kg
[1]; p.o., listed as Comparison Example 6
  Oral ED50: over 10 mg/Kg
[1]; s.c.
  Subcutaneous ED50: >0.5 mg/kg
[1]; s.c., listed as Comparison Example 6
  Subcutaneous ED50: over 0.5 mg/Kg

## Iminoethyl-[Tyr]-[D-Met(O)]-[Phe]-[N-MeLys]-NHCH3 [SS8225-08]
[1]; p.o.
  Oral ED50: >10 mg/kg
[1]; s.c.
  activity-peak time after the subcutaneous administration: 90 min
  Subcutaneous ED50: 0.1 mg/kg
[1]; s.c., dose of 0.25 mg/Kg
  lasting time of anti-nociceptive activity: 5 h

## COc1ccc2c3c1O[C@H]1C(=O)CC[C@@]4(O)[C@@H](C2)N(C)CC[C@]314 [Oxycodone]
[1]; po, p.o., read-out: Oral ED50
  ED50: 7.82 mg/kg
[1]; sc, s.c., read-out: Subcutaneous ED50
  ED50: 1.21 mg/kg
[1]; p.o.
  activity-peak time after the oral administration: 45 min
[1]; s.c.
  activity-peak time after the subcutaneous administration: 30 min
[1]; p.o., dose of 20 mg/Kg
  lasting time of anti-nociceptive activity: 5 h
[1]; s.c., dose of 1.75 mg/Kg
  lasting time of anti-nociceptive activity: 1.5 h
[2]; oral
  activity lasting-time, times longer than for morphine: 0.4 times
  activity peak: 60 min
[2]; oral 7.5 mg/kg
  AUC of time-course variation of anti-nociceptive activity: 2525
[2]; oral 15 mg/kg
  AUC of time-course variation of anti-nociceptive activity: 6363
[2]; oral 30 mg/kg
  AUC of time-course variation of anti-nociceptive activity: 10562
[2]; oral, %MPE, read-out: ED50 value at activity peak
  ED50: 10.3 mg/kg
[2]; oral, from ED50 of AUCs
  anti-nociceptive activities, times stronger than for morphine: approximately 1.8 times
[2]; oral, read-out: ED50 of AUCs
  ED50: 49.4 mg/kg
[2]; oral, stated after ED50 at activity peak
  anti-nociceptive activity lasting-times, times longer than for morphine: 3.6 times
[2]; orally administered
  activity lasting-time: 120 min

## CC(=N)N[C@@H](Cc1ccc(O)cc1)C(=O)N[C@H](CC[S+](C)[O-])C(=O)N[C@@H](Cc1ccccc1)C(=O)N(C)CCC(N)=O (stereo partly drawn) [SS8225-04, Iminoethyl-[Tyr]-[D-Met(O)]-[Phe]-[N-MeβAla]-NH2]
Male ddy mouse; dosage 6.25 mg/Kg (125 times the ED50)
  Lethality (%): 0%
Male ddy mouse; dosage 6.25 mg/Kg
  Number of mice died (out of five): 0
Male ddy mouse; dosage 25 mg/Kg (500 times the ED50)
  Lethality (%): 0%
Male ddy mouse; dosage 25 mg/Kg
  Number of mice died (out of five): 0
Male ddy mouse; dosage 50 mg/Kg (1000 times the ED50)
  Lethality (%): 20%
Male ddy mouse; dosage 50 mg/Kg
  Number of mice died (out of five): 1
Male ddy mouse; dosage 100 mg/Kg (2000 times the ED50)
  Lethality (%): 20%
Male ddy mouse; dosage 100 mg/Kg
  Number of mice died (out of five): 1
Male ddy mouse; mice
  acute toxicity: satisfactorily low

## Iminoethyl-[DMT]-[D-Met(O)]-[Phe]-[N-MeβAla]-NH2 [SS8225-03]
[1]; p.o.
  Oral ED50: >10 mg/kg
[1]; s.c.
  activity-peak time after the subcutaneous administration: 90 min
  Subcutaneous ED50: 0.08 mg/kg
[1]; [3]
  lasting time of anti-nociceptive activity: 7 h

## Iminoethyl-[DMT]-[D-Met(O)]-[Phe]-[N-MeLys]-NH2 [SS8225-05]
[1]; p.o.
  Oral ED50: >10 mg/kg
[1]; s.c.
  activity-peak time after the subcutaneous administration: 120 min
  Subcutaneous ED50: 0.10 mg/kg
[1]; s.c., dose of 0.25 mg/Kg
  lasting time of anti-nociceptive activity: 7 h
